This is an account of results in US20110027324A1, “O-DESMETHYL-V[…] TREATING MAJOR DEPRESSIVE DISORDER” (Wyeth LLC, priority 2007, published 2011).

What all share (format): in vivo, human
Test [1] has as its system subjects with a primary diagnosis of MDD. Put plainly: MDD Study No. 2: efficacy evaluation, randomized double-blind placebo-controlled study. The procedure:
This example describes the results of a second multicenter, randomized, double-blind, placebo-controlled, parallel-group study that was also designed to evaluate the efficacy and safety of 50 and 100 mg/day ODV for treating MDD.
Subjects were male or female adults that met the same criteria as the subjects in Example 1. The planned enrollment was 450 subjects. A total of 565 subjects were screened for participation; 80 were screen failures and 485 were randomly assigned to treatment: 161 were assigned to receive placebo, 166 were assigned to receive ODV 50 mg/day; and 158 were assigned to receive ODV 100 mg/day. All 485 randomized subjects were included in the safety population (completed the prestudy period and took at least 1 dose of double-blind study drug). The intent-to-treat [ITT] efficacy population included 483 subjects, and the per-protocol [PP] efficacy population included 440 subjects. Completers for exposure (353 subjects) were defined as subjects who had at least 53 days of exposure to study drug.
The administration protocols for 50 or 100 mg/day and placebo groups were the same as in Example 1.
The primary and secondary outcomes were the same as in Example 1 as were the statistical methods. P-values of less than 0.05 are shown in bold.

Test [2] has the same test system. Put plainly: MDD Study No. 1: efficacy evaluation, randomized double-blind placebo-controlled 8-week study. The method, then: This example describes the results of a multicenter, randomized, double-blind, placebo-controlled, parallel-group study that was designed to evaluate the efficacy and safety of 50 and 100 mg/day ODV for treating MDD.
Subjects were male or female outpatients at least 18 years of age who had depressive symptoms for at least 30 days before the screening visit, and a primary diagnosis of MDD based on the criteria in the Diagnostic and Statistical Manual of Mental Disorders, Fourth edition (DSM-IV), single or recurrent episode, without psychotic features. Minimum screening and baseline scores of 20 on the Hamilton Rating Scale for Depression, 17-item (HAM-D17), of 2 on item 1 (depressed mood) on the HAM-D17, and of 4 on the Clinical Global Impressions Scale-Severity (CGI-S) were also required.
The planned enrollment was 480 subjects. A total of 703 subjects were screened for participation; 229 were screen failures and 474 were randomly assigned to treatment: 159 were assigned to receive placebo, 158 were assigned to receive ODV 50 mg/day; and 157 were assigned to receive ODV 100 mg/day. Twenty-three (23) of these 474 subjects were considered “no-data subjects” (randomized to treatment without information as to treatment). […]
The primary outcome variable was the HAM-D17 total score. The key secondary outcome variable was the Clinical Global Impressions Scale-Improvement (CGI-D score. Other secondary efficacy variables included the CGI-S, the Montgomery and Asberg Depression Rating Scale (MADRS) score, the HAM-D6 (Bech version: HAM-D17 items 1, 2, 7, 8, 10, and 13) score, the Covi Anxiety Scale total score, the remission rate (percentage of subjects with HAM-D17 scores of ≦7), response rates for the HAM-D17 (50% or greater change from baseline in the HAM-D17 total score), MADRS, and CGI-I, and the visual analog scale for pain intensity (VAS-PI). Self-administered health outcomes assessments were measured by the Sheehan Disability Scale (SDS) and the World Health Organization 5-Item Well-Being Index (WHO-5). […]

Test [3] shares this test system. The test is described as follows: MDD Study No. 3: efficacy evaluation, randomized double-blind placebo-controlled study. As to conditions: for CGI-S score, Δ from Baseline: baseline 4.3, placebo −1.10; for HAM-D6, Δ from Baseline: placebo −4.82; for MADRS total score, Δ from Baseline: placebo −11.0. The procedure:
This example describes the results of a third multicenter, randomized, double-blind, placebo-controlled, parallel-group study that was also designed to evaluate the efficacy and safety of 50 and 100 mg/day ODV for treating MDD.
Subjects were male or female adults that met the same criteria as the subjects in Example 1. The administration protocols for 50 or 100 mg/day and placebo groups were the same as in Example 1.
The primary and secondary outcomes were the same as in Example 1 as were the statistical methods. A Global F-test was also used to analyze the results. The purpose of this test was to compare the two fixed doses with placebo to control for Type-I error. Statistical significance is met if the p-value for the Global F-test <0.05, followed by un-adjusted pairwise comparison between either dose and placebo at 0.05 significance level.

Regarding `CN(C)CC(c1ccc(O)cc1)C1(O)CCCCC1` (stereo not shown) [ODV, 1-[2-(dimethylamino)-1-(4-phenol)ethyl]-cyclohexanol], the “HAM-D17 total score, adjusted mean change from baseline” value in test [1] (50 mg/day, FOT evaluation, ANCOVA LOCF, placebo −10.7) is −13.2; in test [1] (50 mg/day, week 8, mixed effect model, placebo −11.5), −14.4; in test [1] (100 mg/day, FOT evaluation, ANCOVA LOCF, placebo −10.7) it was −13.7; in test [1] (100 mg/day, week 8, mixed effect model, placebo −11.5) it was −14.9; in test [2] (50 mg/day, FOT evaluation, ANCOVA LOCF, placebo −9.53), −11.5; in test [2] (50 mg/day, week 8, mixed-effects model, placebo −9.86), −12.40. The “HAM-D17 total score, adjusted mean change from baseline” value in test [2] (100 mg/day, week 8, mixed-effects model, placebo −9.86) was −11.88. The “HAM-D17 total score, Diff. versus Placebo (95% CI)” value in test [3] (50 mg/day, LOCF) is 1.1 (−0.6, 2.7); in test [3] (50 mg/day, MMRM), 1.4 (−0.0, 2.8); in test [3] (50 mg/day, OC) it was 1.8 (−0.1, 3.6); in test [3] (100 mg/day, LOCF), 1.8 (0.2, 3.4); in test [3] (100 mg/day, MMRM), 2.2 (0.7, 3.6); in test [3] (100 mg/day, OC) it was 2.9 (1.0, 4.7). Further, the “CGI-S score, Δ from Baseline” value in test [3] (50 mg/day) is on record as −1.25; in test [3] (100 mg/day) it was −1.44. In addition, the “HAM-D6, Δ from Baseline” value in test [3] (50 mg/day, baseline 12.8) was −5.41; in test [3] (100 mg/day, baseline 12.9), −6.15. For the same compound, the “MADRS total score, Δ from Baseline” value in test [3] (50 mg/day, baseline 30.1) was −12.7; in test [3] (100 mg/day, baseline 30.0) it was −14.4.
